In ChEMBL document CHEMBL3046590, “Design and synthesis of some thiazolotriazolyl esters as anti-inflammatory and analgesic agents” (Med Chem Res, 2012):

Legend:
[1] = tested on: Mus musculus; assay: Toxicity in Mus musculus BALB/c (mouse) assessed as behavioral changes at 50 to 200 mg/kg, po after 72 hr; format: organism-based; design: dose 50-200 mg/kg, route oral; details: in vivo
[2] = tested on: Mus musculus; assay: Toxicity in Mus musculus BALB/c (mouse) assessed as mortality at 50 to 200 mg/kg, po after 72 hr; format: organism-based; design: dose 50-200 mg/kg, route oral; details: in vivo
[3] = tested on: Mus musculus; assay: Antioxidant activity in Mus musculus BALB/c (mouse) stomach assessed as TBARS level at 100 mg/kg, po (reference value: 80.4 +/- 5.4 nmol/g ); format: functional
[4] = tested on: Mus musculus; assay: Anti-inflammatory activity in Mus musculus BALB/c (mouse) assessed as inhibition of carrageenan-induced paw swelling at 50 mg/kg, po administered 1 hr followed by carrageenan challenge measured at 270 min relative to control; format: functional
[5] = tested on: Mus musculus; assay: Anti-inflammatory activity in Mus musculus BALB/c (mouse) assessed as inhibition of carrageenan-induced paw swelling at 100 mg/kg, po administered 1 hr followed by carrageenan challenge measured at 180 min relative to control; format: functional
[6] = tested on: Mus musculus; assay: Anti-inflammatory activity in Mus musculus BALB/c (mouse) assessed as inhibition of carrageenan-induced paw swelling at 200 mg/kg, po administered 1 hr followed by carrageenan challenge measured at 90 min relative to control; format: functional
[7] = tested on: Mus musculus; assay: Anti-inflammatory activity in Mus musculus BALB/c (mouse) assessed as carrageenan-induced paw swelling at 50 mg/kg, po administered 1 hr followed by carrageenan challenge measured at 360 min (reference value: 105 +/- 4.5 x 10^-2 mm); format: functional
[8] = tested on: Mus musculus; assay: Anti-inflammatory activity in Mus musculus BALB/c (mouse) assessed as carrageenan-induced paw swelling at 200 mg/kg, po administered 1 hr followed by carrageenan challenge measured at 360 min (reference value: 105 +/- 4.5 x 10^-2 mm); format: functional
[9] = tested on: Mus musculus; assay: Anti-inflammatory activity in Mus musculus BALB/c (mouse) assessed as carrageenan-induced paw swelling at 100 mg/kg, po administered 1 hr followed by carrageenan challenge measured at 360 min (reference value: 105 +/- 4.5 x 10^-2 mm); format: functional
[10] = tested on: Mus musculus; assay: Anti-inflammatory activity in Mus musculus BALB/c (mouse) assessed as carrageenan-induced paw swelling at 50 mg/kg, po administered 1 hr followed by carrageenan challenge measured at 270 min (reference value: 78 +/- 8.4 x 10^-2 mm); format: functional
[11] = tested on: Mus musculus; assay: Anti-inflammatory activity in Mus musculus BALB/c (mouse) assessed as carrageenan-induced paw swelling at 200 mg/kg, po administered 1 hr followed by carrageenan challenge measured at 270 min (reference value: 78 +/- 8.4 x 10^-2 mm); format: functional
[12] = tested on: Mus musculus; assay: Anti-inflammatory activity in Mus musculus BALB/c (mouse) assessed as carrageenan-induced paw swelling at 100 mg/kg, po administered 1 hr followed by carrageenan challenge measured at 270 min (reference value: 78 +/- 8.4 x 10^-2 mm); format: functional
[13] = tested on: Mus musculus; assay: Anti-inflammatory activity in Mus musculus BALB/c (mouse) assessed as carrageenan-induced paw swelling at 50 mg/kg, po administered 1 hr followed by carrageenan challenge measured at 180 min (reference value: 52 +/- 4.6 x 10^-2 mm); format: functional
[14] = tested on: Mus musculus; assay: Anti-inflammatory activity in Mus musculus BALB/c (mouse) assessed as carrageenan-induced paw swelling at 200 mg/kg, po administered 1 hr followed by carrageenan challenge measured at 180 min (reference value: 52 +/- 4.6 x 10^-2 mm); format: functional
[15] = tested on: Mus musculus; assay: Anti-inflammatory activity in Mus musculus BALB/c (mouse) assessed as carrageenan-induced paw swelling at 100 mg/kg, po administered 1 hr followed by carrageenan challenge measured at 180 min (reference value: 52 +/- 4.6 x 10^-2 mm); format: functional
[16] = tested on: Mus musculus; assay: Anti-inflammatory activity in Mus musculus BALB/c (mouse) assessed as carrageenan-induced paw swelling at 50 mg/kg, po administered 1 hr followed by carrageenan challenge measured at 90 min (reference value: 39 +/- 5.6 x 10^-2 mm); format: functional
[17] = tested on: Mus musculus; assay: Anti-inflammatory activity in Mus musculus BALB/c (mouse) assessed as carrageenan-induced paw swelling at 200 mg/kg, po administered 1 hr followed by carrageenan challenge measured at 90 min (reference value: 39 +/- 5.6 x 10^-2 mm); format: functional
[18] = tested on: Mus musculus; assay: Anti-inflammatory activity in Mus musculus BALB/c (mouse) assessed as carrageenan-induced paw swelling at 100 mg/kg, po administered 1 hr followed by carrageenan challenge measured at 90 min (reference value: 39 +/- 5.6 x 10^-2 mm); format: functional
[19] = tested on: Mus musculus; assay: Analgesic activity in Mus musculus BALB/c (mouse) assessed as inhibition of acetic acid-induced writhing at 100 mg/kg, po administered 1 hr followed by acetic acid challenge measured for 10 min; format: functional
[20] = tested on: Mus musculus; assay: Anti-inflammatory activity in Mus musculus BALB/c (mouse) assessed as inhibition of carrageenan-induced paw swelling at 100 mg/kg, po administered 1 hr followed by carrageenan challenge measured at 360 min relative to control; format: functional
[21] = tested on: Mus musculus; assay: Anti-inflammatory activity in Mus musculus BALB/c (mouse) assessed as inhibition of carrageenan-induced paw swelling at 200 mg/kg, po administered 1 hr followed by carrageenan challenge measured at 270 min relative to control; format: functional
[22] = tested on: Mus musculus; assay: Anti-inflammatory activity in Mus musculus BALB/c (mouse) assessed as inhibition of carrageenan-induced paw swelling at 100 mg/kg, po administered 1 hr followed by carrageenan challenge measured at 270 min relative to control; format: functional
[23] = tested on: Mus musculus; assay: Anti-inflammatory activity in Mus musculus BALB/c (mouse) assessed as inhibition of carrageenan-induced paw swelling at 200 mg/kg, po administered 1 hr followed by carrageenan challenge measured at 180 min relative to control; format: functional
[24] = tested on: Mus musculus; assay: Anti-inflammatory activity in Mus musculus BALB/c (mouse) assessed as inhibition of carrageenan-induced paw swelling at 50 mg/kg, po administered 1 hr followed by carrageenan challenge measured at 180 min relative to control; format: functional
[25] = tested on: Mus musculus; assay: Anti-inflammatory activity in Mus musculus BALB/c (mouse) assessed as inhibition of carrageenan-induced paw swelling at 50 mg/kg, po administered 1 hr followed by carrageenan challenge measured at 90 min relative to control; format: functional
[26] = tested on: Mus musculus; assay: Anti-inflammatory activity in Mus musculus BALB/c (mouse) assessed as inhibition of carrageenan-induced paw swelling at 50 mg/kg, po administered 1 hr followed by carrageenan challenge measured at 360 min relative to control; format: functional
[27] = tested on: Mus musculus; assay: Anti-inflammatory activity in Mus musculus BALB/c (mouse) assessed as inhibition of carrageenan-induced paw swelling at 100 mg/kg, po administered 1 hr followed by carrageenan challenge measured at 90 min relative to control; format: functional
[28] = tested on: Mus musculus; assay: Anti-inflammatory activity in Mus musculus BALB/c (mouse) assessed as inhibition of carrageenan-induced paw swelling at 200 mg/kg, po administered 1 hr followed by carrageenan challenge measured at 360 min relative to control; format: functional
[29] = tested on: Mus musculus; assay: Anti-inflammatory activity in Mus musculus BALB/c (mouse) assessed as inhibition of carrageenan-induced paw swelling at 10 mg/kg, po administered 1 hr followed by carrageenan challenge measured at 360 min relative to control; format: functional
[30] = tested on: Mus musculus; assay: Anti-inflammatory activity in Mus musculus BALB/c (mouse) assessed as inhibition of carrageenan-induced paw swelling at 10 mg/kg, po administered 1 hr followed by carrageenan challenge measured at 270 min relative to control; format: functional
[31] = tested on: Mus musculus; assay: Anti-inflammatory activity in Mus musculus BALB/c (mouse) assessed as inhibition of carrageenan-induced paw swelling at 10 mg/kg, po administered 1 hr followed by carrageenan challenge measured at 180 min relative to control; format: functional
[32] = tested on: Mus musculus; assay: Anti-inflammatory activity in Mus musculus BALB/c (mouse) assessed as inhibition of carrageenan-induced paw swelling at 10 mg/kg, po administered 1 hr followed by carrageenan challenge measured at 90 min relative to control; format: functional

COc1ccc(-c2nnc(S)[nH]2)cc1
Activity [1]: Non-toxic | Activity [2]: Non-toxic | Activity [3]: 73.3 nmol/g | inhibition in vivo at 50 mg/kg [4]: 17.9% | inhibition in vivo at 100 mg/kg [5]: 37.9% | inhibition in vivo at 200 mg/kg [6]: 16.9% | Activity [7]: 100 ×10⁻² mm | Activity [8]: 104.5 ×10⁻² mm | Activity [9]: 133 ×10⁻² mm | Activity [10]: 64.8 ×10⁻² mm | Activity [11]: 75 ×10⁻² mm | Activity [12]: 79.5 ×10⁻² mm | Activity [13]: 49.7 ×10⁻² mm | Activity [14]: 53.2 ×10⁻² mm | Activity [15]: 32.3 ×10⁻² mm | Activity [16]: 59.3 ×10⁻² mm | Activity [17]: 32.4 ×10⁻² mm | Activity [18]: 33.7 ×10⁻² mm

CCOC(=O)c1sc2nc(CCc3cc(OC)c(OC)c(OC)c3)nn2c1C
Activity [1]: Non-toxic | Activity [2]: Non-toxic | Activity [3]: 109.1 nmol/g | inhibition in vivo at 100 mg/kg [19]: 85.9% | inhibition in vivo at 100 mg/kg [20]: 20.2% | inhibition in vivo at 200 mg/kg [21]: 21.9% | inhibition in vivo at 100 mg/kg [22]: 18.7% | inhibition in vivo at 200 mg/kg [23]: 25.2% | inhibition in vivo at 100 mg/kg [5]: 28.8% | inhibition in vivo at 50 mg/kg [24]: 44.2% | inhibition in vivo at 50 mg/kg [25]: 50% | Activity [7]: 101.4 ×10⁻² mm | Activity [8]: 92.9 ×10⁻² mm | Activity [9]: 83.8 ×10⁻² mm | Activity [10]: 73.8 ×10⁻² mm | Activity [11]: 60.9 ×10⁻² mm | Activity [12]: 63.4 ×10⁻² mm | Activity [13]: 29 ×10⁻² mm | Activity [14]: 38.9 ×10⁻² mm | Activity [15]: 37 ×10⁻² mm | Activity [16]: 19.5 ×10⁻² mm | Activity [17]: 32.4 ×10⁻² mm | Activity [18]: 34.5 ×10⁻² mm

COc1cc(CCC2=NC(=S)N=N2)cc(OC)c1OC
Activity [1]: Non-toxic | Activity [2]: Non-toxic | Activity [3]: 79.1 nmol/g | inhibition in vivo at 100 mg/kg [20]: 38% | inhibition in vivo at 50 mg/kg [26]: 19.9% | inhibition in vivo at 100 mg/kg [22]: 52.2% | inhibition in vivo at 100 mg/kg [5]: 40.8% | inhibition in vivo at 100 mg/kg [27]: 28.2% | Activity [7]: 84.1 ×10⁻² mm | Activity [8]: 106.7 ×10⁻² mm | Activity [9]: 65.1 ×10⁻² mm | Activity [10]: 74.5 ×10⁻² mm | Activity [11]: 70.3 ×10⁻² mm | Activity [12]: 37.3 ×10⁻² mm | Activity [13]: 48.2 ×10⁻² mm | Activity [14]: 50.5 ×10⁻² mm | Activity [15]: 30.8 ×10⁻² mm | Activity [16]: 52.6 ×10⁻² mm | Activity [17]: 39.7 ×10⁻² mm | Activity [18]: 28 ×10⁻² mm

CCOC(=O)Cc1csc2nc(-c3ccc(Cl)cc3)nn12
Activity [1]: Non-toxic | Activity [2]: Non-toxic | Activity [3]: 157.2 nmol/g | inhibition in vivo at 100 mg/kg [19]: 38.5% | inhibition in vivo at 200 mg/kg [28]: 17.4% | inhibition in vivo at 100 mg/kg [20]: 33.3% | inhibition in vivo at 200 mg/kg [21]: 24.9% | inhibition in vivo at 200 mg/kg [23]: 28.5% | inhibition in vivo at 200 mg/kg [6]: 25.4% | Activity [7]: 105 ×10⁻² mm | Activity [8]: 86.7 ×10⁻² mm | Activity [9]: 70 ×10⁻² mm | Activity [10]: 88.5 ×10⁻² mm | Activity [11]: 58.6 ×10⁻² mm | Activity [12]: 82.5 ×10⁻² mm | Activity [13]: 66.1 ×10⁻² mm | Activity [14]: 37.2 ×10⁻² mm | Activity [15]: 52.5 ×10⁻² mm | Activity [16]: 61 ×10⁻² mm | Activity [17]: 29.1 ×10⁻² mm | Activity [18]: 43.7 ×10⁻² mm

COc1ccc2c(c1)c(CC(=O)O)c(C)n2C(=O)c1ccc(Cl)cc1 [INDOMETHACIN]
Activity [1]: Non-toxic | Activity [2]: Non-toxic | inhibition in vivo at 10 mg/kg [29]: 26.7% | inhibition in vivo at 10 mg/kg [30]: 34.6% | inhibition in vivo at 10 mg/kg [31]: 56.7% | inhibition in vivo at 10 mg/kg [32]: 6.9%
